Source: US20160045505A1, “COMPOUNDS AND COMPOSITIONS FOR THE TREATMENT OF PARASITIC DISEASES” (NOVARTIS AG, priority 2013, published 2016)

Experiments:
[1] = tested on: L. donovani HU3 strain in mouse peritoneal macrophages; experiment: Assay for proliferation of Leishmania parasites in infected mouse peritoneal macrophages (SybrGreen staining, high-content imaging, 5 days); assay type: cell-based, Leishmania donovani; settings: Leishmania donovani, Peritoneal macrophage, L. donovani in mouse peritoneal macrophages; read-out: L. donovani Macrophage EC50
[2] = tested on: Trypanosoma cruzi amastigotes (Tulahuen strain expressing Lac-Z) cultured in 3T3 fibroblast cells; experiment: microbe, parasite or virus in culture; assay type: cell-based; settings: Trypanosoma cruzi, TULAHUEN, Fibroblast, T. cruzi amastigotes in 3T3 fibroblast cells; read-out: T cruzi EC50
[3] = tested on: Trypanosoma brucei Lister 427 strain, bloodstream form; experiment: Assay for proliferation of kinetoplastid parasite Trypanosoma brucei (Cell Titer Glo, 48 hours); assay type: cell-based; settings: Trypanosoma brucei, T. brucei Lister 427 bloodstream form; read-out: T. brucei EC50
Method in brief: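 Bloodstream-form T. brucei Lister 427 in HMI-9 medium was exposed to compound (DMSO vehicle) for 48 hours at 37° C, 5% CO2. Parasite growth was read as ATP by CellTiter-Glo luminescence, with EC50 calculated from percent inhibition.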

[4] = tested on: Leishmania donovani axenic amastigote parasites; experiment: Leishmania donovani axenic amastigote proliferation assay (Cell TiterGlo luminescence, 2 day incubation); assay type: cell-based; settings: Leishmania donovani, L. donovani axenic amastigotes; read-out: L. donovani amastigotes EC50

SMILES | EC50 [1] [nM] | EC50 [2] [nM] | EC50 [3] [nM] | EC50 [4] [nM]
Cc1nc(C)c(C(=O)Nc2ccc(F)c(-c3cn4cc(-c5ccc(N6CCN(C(C)C)CC6)cc5)cnc4n3)c2)o1 [Compound 382] | 10700 | 1390 | 2600 | 3880
Cc1nc(C)c(C(=O)Nc2ccc(F)c(-c3cn4cc(-c5ccc(N6CCOCC6)cc5)cnc4n3)c2)o1 [Compound 383] | 521 | 137 | 331 | 146
Cc1nc(C)c(C(=O)Nc2ccc(F)c(-c3cn4cc(-c5cnn(C6CCN(C(=O)OC(C)(C)C)CC6)c5)cnc4n3)c2)o1 [Compound 384] | 616 | 115 | 143 | 95
Cc1nc(C)c(C(=O)Nc2ccc(F)c(-c3cn4cc(-c5cnn(C6CCOCC6)c5)cnc4n3)c2)o1 [Compound 385] | > 36700 | 1160 | 369 | 268
Cc1nc(C)c(C(=O)Nc2ccc(F)c(-c3cn4cc(-c5cn[nH]c5)cnc4n3)c2)o1 [Compound 386] | > 50000 | > 20000 | 1550 | 1500
Cc1nc(C)c(C(=O)Nc2ccc(F)c(-c3cn4cc(-c5cnn(CCN6CCOCC6)c5)cnc4n3)c2)o1 [Compound 388] | 2950 | 3530 | 415 | 1010
Cc1nc(C)c(C(=O)Nc2ccc(F)c(-c3cn4cc(-c5cnn(C)c5)cnc4n3)c2)o1 [Compound 389] | 330 | 254 | 158 | 97
Cc1nc(C)c(C(=O)Nc2ccc(F)c(-c3cn4cc(-c5ccnn5C(C)C)cnc4n3)c2)o1 [Compound 390] | 174 | 75 | 54 | 53
Cc1nc(C)c(C(=O)Nc2ccc(F)c(-c3cn4cc(-c5ccccc5F)cnc4n3)c2)o1 [Compound 391] | 129 | 16 | 53 | 56
CNc1ccc(-c2cnc3nc(-c4cc(NC(=O)c5oc(C)nc5C)ccc4F)cn3c2)cc1 [Compound 392] | 152 | 48 | 55 | 103
Cc1nc(C)c(C(=O)Nc2ccc(F)c(-c3cn4cc(-c5ccnn5C)cnc4n3)c2)o1 [Compound 393] | 183 | 149 | 110 | 147
Cc1nc(C)c(C(=O)Nc2ccc(F)c(-c3cn4cc(-c5cccnc5)cnc4n3)c2)o1 [Compound 395] | 187 | 153 | 45 | 109
Cc1nc(C)c(C(=O)Nc2ccc(F)c(-c3cn4cc(-c5ccc(F)cc5)cnc4n3)c2)o1 [Compound 396] | 88 | 17 | 42 | 55
Cc1nc(C)c(C(=O)Nc2ccc(F)c(-c3cn4cc(-c5ccccc5S(C)(=O)=O)cnc4n3)c2)o1 [Compound 397] | 448 | 200 | 68 | 337
Cc1ncc(C(=O)Nc2ccc(F)c(-c3cn4cc(-c5cccnc5)cnc4n3)c2)o1 [Compound 398] | 424 | 572 | 317 | 186
CC(C)OC(=O)Nc1ccc(F)c(-c2cn3cc(-c4cccnc4)cnc3n2)c1 [Compound 399] | 646 | 80 | 103 | 274
O=C(Nc1ccc(F)c(-c2cn3cc(-c4cccnc4)cnc3n2)c1)N1CC(F)C1 [Compound 401] | 263 | 445 | 34 | 94
O=C(Nc1ccc(F)c(-c2cn3cc(-c4cccnc4)cnc3n2)c1)N1CC(F)(F)C1 [Compound 402] | 285 | 251 | 11 | 69
O=C(Nc1ccc(F)c(-c2cn3cc(-c4cccnc4)cnc3n2)c1)N1CCC1 [Compound 405] | 361 | 271 | 13 | 94
O=C(Nc1ccc(F)c(-c2cn3cc(-c4ccccn4)cnc3n2)c1)N1CC[C@@H](F)C1 [Compound 407] | 14 | 14 | 4 | 9
O=C(Nc1ccc(F)c(-c2cn3cc(-c4cccnc4)cnc3n2)c1)N1CC[C@@H](F)C1 [Compound 408] | 246 | 237 | 18 | 78
O=C(Nc1ccc(F)c(-c2cn3cc(-c4ccccc4)cnc3n2)c1)N1CC[C@@H](F)C1 [Compound 409] | 61 | 5 | 4 | 19
